Data published in BindingDB's records for PubMed 37122539 (Virginia Tech, 2023).
Converted amounts (≈) assume the structure as drawn.

System: Enterococcus faecalis
Test: Antibacterial activity against Enterococcus faecalis ATCC 29212 incubated for 16 hrs by broth microdilution method

IC50 [µg/mL]	Structure (SMILES)
13 (≈ 30.8 µM)	CN(CC[C@H](N)CC(=O)N[C@H]1C=C[C@H](n2ccc(N)nc2=O)O[C@@H]1C(N)=O)C(=N)N
9.2 (≈ 21.1 µM)	COC(=O)[C@H]1O[C@@H](n2ccc(N)nc2=O)C=C[C@@H]1NC(=O)C[C@@H](N)CCN(C)C(=N)N
9.9 (≈ 22 µM)	CCOC(=O)[C@H]1O[C@@H](n2ccc(N)nc2=O)C=C[C@@H]1NC(=O)C[C@@H](N)CCN(C)C(=N)N
11 (≈ 23.7 µM)	CCCOC(=O)[C@H]1O[C@@H](n2ccc(N)nc2=O)C=C[C@@H]1NC(=O)C[C@@H](N)CCN(C)C(=N)N
16 (≈ 33.4 µM)	CCCCOC(=O)[C@H]1O[C@@H](n2ccc(N)nc2=O)C=C[C@@H]1NC(=O)C[C@@H](N)CCN(C)C(=N)N
11 (≈ 21.7 µM)	CCCCCCOC(=O)[C@H]1O[C@@H](n2ccc(N)nc2=O)C=C[C@@H]1NC(=O)C[C@@H](N)CCN(C)C(=N)N
12 (≈ 24.6 µM)	C#CCCCOC(=O)[C@H]1O[C@@H](n2ccc(N)nc2=O)C=C[C@@H]1NC(=O)C[C@@H](N)CCN(C)C(=N)N
15 (≈ 29.3 µM)	CN(CC[C@H](N)CC(=O)N[C@H]1C=C[C@H](n2ccc(N)nc2=O)O[C@@H]1C(=O)OCc1ccccc1)C(=N)N
6.9 (≈ 13.1 µM)	CN(CC[C@H](N)CC(=O)N[C@H]1C=C[C@H](n2ccc(N)nc2=O)O[C@@H]1C(=O)OCCc1ccccc1)C(=N)N

Structure (SMILES)	IC50 [µg/mL]
CN(CC[C@H](N)CC(=O)N[C@H]1C=C[C@H](n2ccc(N)nc2=O)O[C@@H]1C(=O)O)C(=N)N	53 (≈ 125 µM)
